Source: patent US10441562B2, “Aromatic farnesyl compound and application thereof” (INSTITUTE OF MICROBIOLOGY, CHINESE ACADEMY OF SCIENCES, priority 2015, dated 2019)
Marks after values point to notes of the source that are not given here.

Key:
[1] = target: T1, α-glucosidase (Saccharomyces cerevisiae, UniProt P53341); assay: α-glucosidase inhibitory activity test in vitro; assay type: biochemical; conditions: read-out: α-glucosidase inhibitory activity (IC50)
T1 construct: purchased Sigma Corporation G5003

[2] = target: T2, dipeptidyl peptidase-4 (Homo sapiens, UniProt P27487); assay: dipeptidyl peptidase-4 inhibitory activity test in vitro (DPP-4 inhibitor screening kit); assay type: biochemical
T2 construct: purchased
Text: The above compounds are detected by DPP-4 inhibitor screening kit.

[3] = test system: normal mice; assay: blood sugar of normal mice; assay type: in vivo, Kunming species mice; conditions: 50 mg/kg intragastric, 10 days, fasted 10 hours
Protocol: Blood glucose determination kit (batch number 20140403) is purchased from Nanjing Jiancheng Bioengineering Institute.
Methods: after being acclimatized for 1 week, the 20±2 g Kunming species mice are randomly divided into 3 groups of 12 animals in each. 10 mg/ml extract solution of 0.1 ml (which corresponds to 50 mg/kg) is given to different groups of mice by intragastric administration for 10 days successively, and the control group is given with equal amounts of saline. After the last administration, the mice are fasted for 10 hours and blood is collected from orbit, then detect the blood sugar by blood glucose determination kit.

[4] = test system: hyperglycemia mice induced by alloxan; assay: blood sugar of hyperglycemia mice induced by alloxan; assay type: in vivo, Kunming species mice; conditions: for effect on blood sugar level of hyperglycemic mice (in words): 50 mg/kg
Protocol: Blood glucose determination kit (batch number 20140403) is purchased from Nanjing Jiancheng Bioengineering Institute. Methods: after being acclimatized for 1 week, 10 randomly selected Kunming species male mice of SPF level of 20±2 g are used as control group, while the other 50 mice are given alloxan to make model by intraperitoneal injection according to body weight 220 mg/kg.

[5] = test system: hyperglycemia KK-A^y mice; assay: glucose tolerance test (OGTT) in hyperglycemia KK-A^y mice; assay type: in vivo; conditions: OGTT 12th day, glucose 2.0 g/kg oral
Protocol: KK-A^y mice are purchased from Chinese Academy of Medical Sciences & Peking Union Medical College Institute of Animal Studies. Experiments are carried out after adapting to the environment (T=20-24° C., constant humidity: 50-60%, 12 hours light exposure (8:00-20:00), soundproof, free feeding and drinking) for 1 week. Glucometer is purchased from Roche.
Each group has 8 mice, and is administrated successively for 3 weeks. Model control group is given with equal amounts of 0.5% CMC-Na.
3) Glucose tolerance test (OGTT): glucose tolerance is detected at the 12th day after administration. The mice are fasted for 12 hours and blood is collected (0 h). After being given with glucose (2.0 g/kg) by oral administration, blood is collected from tip of tail to detect the blood sugar level after 30 min, 60 min and 120 min respectively (see table 11).

[6] = test system: Wister rats fed with choline deficient diet; assay: non-alcohol fatty liver disease in rats fed choline deficient (high-fat) diet; assay type: in vivo; conditions: for ALT / HDL-C / LDL-C / Liver index / TC / TG: 4 weeks
Protocol: Serum total cholesterol kit (batch number 20131112), low density lipoprotein LDL-C kit (batch number 20140114), high density lipoprotein HDL-C kit (batch number 20140413), triglyceride TG kit (batch number 20131226) and glutamic-pyruvic transaminase ALT kit (batch number 20131006) are purchased from Nanjing Jiancheng Bioengineering Institute.
Methods: male SPF level Wister rats are randomly divided into groups: (1) normal group (2) model control group (3) which is administered by compound S13 with the dose of 10 mg/kg (4) which is administered by compound S13 with the dose of 20 mg/kg (5) which is administered by compound S28 with the dose of 10 mg/kg […] which is administered by compound S28 with the dose of 20 mg/kg. Each group has 10 mice. The mice of normal group are fed with standard diet, the mice of other groups are fed with choline deficient diet (high-fat diet). Food intake and body weight are detected. Feeding with choline deficient diet are considered as a frequently-used hepatic adipose infiltration modeling method of rodent, which can induce the denaturation of hepatocyte, hepatitis and liver injury, at the same time the increase of blood lipid level can induce the insulin resistance.
After being fed with high-fat diet for 8 weeks, the mice of treated group are given drugs for 4 weeks successively. Model group and normal group are given with equal amounts of 0.5% CMC-Na. After administration of medicine for 4 weeks, the rats are executed under anesthesia, and then hepatic tissue and blood are collected.
2) Contents of serum total cholesterol, low density lipoprotein, high density lipoprotein and triglyceride.
3) Contents of glutamic-pyruvic transaminase.

T1 sequence (P53341 whole entry): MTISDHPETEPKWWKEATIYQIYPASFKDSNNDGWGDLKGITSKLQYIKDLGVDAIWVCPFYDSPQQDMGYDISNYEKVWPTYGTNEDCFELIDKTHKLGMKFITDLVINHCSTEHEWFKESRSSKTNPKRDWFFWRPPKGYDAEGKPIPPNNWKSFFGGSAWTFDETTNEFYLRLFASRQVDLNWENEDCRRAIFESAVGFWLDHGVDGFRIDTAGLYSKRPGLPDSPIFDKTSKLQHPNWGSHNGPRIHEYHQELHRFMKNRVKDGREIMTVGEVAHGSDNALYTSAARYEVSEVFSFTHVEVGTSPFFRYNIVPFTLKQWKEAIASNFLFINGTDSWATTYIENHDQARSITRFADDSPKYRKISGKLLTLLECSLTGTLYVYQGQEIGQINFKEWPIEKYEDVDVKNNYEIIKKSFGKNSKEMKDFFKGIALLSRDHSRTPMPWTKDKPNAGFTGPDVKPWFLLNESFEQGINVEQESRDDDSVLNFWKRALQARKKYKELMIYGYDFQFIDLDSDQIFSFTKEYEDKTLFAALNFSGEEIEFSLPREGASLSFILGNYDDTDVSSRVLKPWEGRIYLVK
T2 sequence (P27487 whole entry, species assumed): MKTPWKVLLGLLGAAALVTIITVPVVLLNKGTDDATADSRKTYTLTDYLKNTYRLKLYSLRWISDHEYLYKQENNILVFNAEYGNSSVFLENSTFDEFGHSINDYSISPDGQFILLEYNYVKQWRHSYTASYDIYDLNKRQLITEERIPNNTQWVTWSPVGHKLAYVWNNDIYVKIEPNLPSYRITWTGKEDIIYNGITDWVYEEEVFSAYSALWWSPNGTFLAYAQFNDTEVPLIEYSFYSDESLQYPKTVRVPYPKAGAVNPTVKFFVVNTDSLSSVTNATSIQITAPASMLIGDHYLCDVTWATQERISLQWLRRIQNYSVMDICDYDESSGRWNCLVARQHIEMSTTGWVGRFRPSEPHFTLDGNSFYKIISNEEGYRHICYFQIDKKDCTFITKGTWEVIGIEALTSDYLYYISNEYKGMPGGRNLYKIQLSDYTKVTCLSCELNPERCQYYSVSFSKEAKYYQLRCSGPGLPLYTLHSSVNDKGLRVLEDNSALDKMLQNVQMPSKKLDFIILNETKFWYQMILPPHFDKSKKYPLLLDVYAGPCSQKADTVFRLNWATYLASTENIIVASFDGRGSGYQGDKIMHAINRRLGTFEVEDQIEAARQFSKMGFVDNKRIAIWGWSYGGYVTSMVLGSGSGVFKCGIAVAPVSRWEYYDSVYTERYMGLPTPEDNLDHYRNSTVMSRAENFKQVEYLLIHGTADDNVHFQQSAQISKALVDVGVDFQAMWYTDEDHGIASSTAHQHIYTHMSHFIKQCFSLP

Compound	IC50 [1] [nM]	IC50 [2] [nM]	blood sugar [3] [mmol/L]	effect on blood sugar level of hyperglycemic mice (in words) ([4]; 10 days)	glucose tolerance, blood sugar 0 min ([5]; 1 mg/kg, groups 3, 7)	glucose tolerance, blood sugar 0 min ([5]; 5 mg/kg, groups 4, 8)	glucose tolerance, blood sugar 0 min ([5]; 10 mg/kg, groups 5, 9)	glucose tolerance, blood sugar 0 min ([5]; 20 mg/kg, groups 6, 10)	glucose tolerance, blood sugar 30 min ([5]; 1 mg/kg, groups 3, 7)	glucose tolerance, blood sugar 30 min ([5]; 5 mg/kg, groups 4, 8)	glucose tolerance, blood sugar 30 min ([5]; 10 mg/kg, groups 5, 9)	glucose tolerance, blood sugar 30 min ([5]; 20 mg/kg, groups 6, 10)	glucose tolerance, blood sugar 60 min ([5]; 1 mg/kg, groups 3, 7)	glucose tolerance, blood sugar 60 min ([5]; 5 mg/kg, groups 4, 8)	glucose tolerance, blood sugar 60 min ([5]; 10 mg/kg, groups 5, 9)	glucose tolerance, blood sugar 60 min ([5]; 20 mg/kg, groups 6, 10)	glucose tolerance, blood sugar 120 min ([5]; 1 mg/kg, groups 3, 7)	glucose tolerance, blood sugar 120 min ([5]; 5 mg/kg, groups 4, 8)	glucose tolerance, blood sugar 120 min ([5]; 10 mg/kg, groups 5, 9)	glucose tolerance, blood sugar 120 min ([5]; 20 mg/kg, groups 6, 10)	other results
CC(C)=CCC/C(C)=C/CCC1=C[C@@H](c2cc(O)ccc2O)OC1=O [S28, (S,E)-5-(2,5-dihydroxyphenyl)-3-(4,8-dimethylnona-3,7-dien-1-yl)furan-2(5H)-one]	420	6800	4.02	significantly decrease the blood sugar level of hyperglycemic mice	9.5	6.8**	7.6*	6.9**	11.3**	9.3**	16.9**	14.3**	10.5**	9.3**	13.2**	12.4**	8.3**	5.1**	10.9**	11.9**	effect on liver index of fatty liver rats (in words) [6]: effectively decrease the liver index of fatty liver rats; ALT ([6]; 10 mg/kg): 45.97** U/L; HDL-C ([6]; 10 mg/kg): 0.61** mmol/L; LDL-C ([6]; 10 mg/kg): 0.79** mmol/L; Liver index ([6]; 10 mg/kg): 2.91**; TC ([6]; 10 mg/kg): 1.95** mmol/L; TG ([6]; 10 mg/kg): 1.38** mmol/L; ALT ([6]; 20 mg/kg): 41.08** U/L; HDL-C ([6]; 20 mg/kg): 0.68** mmol/L; LDL-C ([6]; 20 mg/kg): 0.70** mmol/L; Liver index ([6]; 20 mg/kg): 2.58**; TC ([6]; 20 mg/kg): 1.36** mmol/L; TG ([6]; 20 mg/kg): 1.15** mmol/L
CC(C)=CCC/C(C)=C/CCC1=C[C@H](c2cc(O)ccc2O)OC1=O [S13, (R,E)-5-(2,5-dihydroxyphenyl)-3-(4,8-dimethylnona-3,7-dien-1-yl)furan-2(5H)-one]	270	4500	4.21	significantly decrease the blood sugar level of hyperglycemic mice	9.6	6.9*	7.96	6.90*	12.5**	9.1**	16.95**	14.00**	10.2**	9.1**	13.20**	12.45**	8.2**	5.2**	10.93**	11.90**	blood sugar after administration ([4]; 50 mg/kg intragastric, 10 days, fasted 10 hours): 5.11** mmol/L; blood sugar before administration ([4]; before administration): 14.50 mmol/L; effect on liver index of fatty liver rats (in words) [6]: effectively decrease the liver index of fatty liver rats; ALT ([6]; 10 mg/kg): 48.24** U/L; HDL-C ([6]; 10 mg/kg): 0.57* mmol/L; LDL-C ([6]; 10 mg/kg): 0.83* mmol/L; Liver index ([6]; 10 mg/kg): 2.85**; TC ([6]; 10 mg/kg): 1.81** mmol/L; TG ([6]; 10 mg/kg): 1.21** mmol/L; ALT ([6]; 20 mg/kg): 33.56** U/L; HDL-C ([6]; 20 mg/kg): 0.72** mmol/L; LDL-C ([6]; 20 mg/kg): 0.71** mmol/L; Liver index ([6]; 20 mg/kg): 2.47**; TC ([6]; 20 mg/kg): 1.37** mmol/L; TG ([6]; 20 mg/kg): 1.08** mmol/L
